Experimental data published in patent US9040458B2, “Safening composition of 6-(trisubstituded phenyl)-4-amino-2-pyridinecarboxylate herbicides and cloquintocet-mexyl for cereal crops” (Dow AgroSciences LLC, priority 2008, dated 2015).

Legend:
Settings in all cases: 20-22 d
[1] = test system: GALAP = Galium aparine (cleavers); experiment: Postemergence herbicidal activity, greenhouse, visual injury; assay type: in vivo
Procedure: (§1) Seeds of the desired test plant species were planted in Sun Gro MetroMix® 306 planting mixture, which typically has a pH of 6.0 to 6.8 and an organic matter content of about 30 percent, in plastic pots with a surface area of 103.2 square centimeters (cm^2). When required to ensure good germination and healthy plants, a fungicide treatment and/or other chemical or physical treatment was applied. The plants were grown for 7-36 days (d) in a greenhouse with an approximate […] photoperiod which was maintained at about 18° C. during the day and 17° C. during the night. Nutrients and water were added on a regular basis and supplemental lighting was provided with overhead metal halide 1000-Watt lamps as necessary. The plants were employed for testing when they reached the second or third true leaf stage.
(§2) Weighed amounts of esters (methyl) or salts (TEA [triethylammonium], potassium [K]) of 4-amino-3-chloro-6-(4-chloro-2-fluoro-3-methoxyphenyl)pyridine-2-carboxylic acid (Compound 1) were dissolved in a volume of 97:3 volume/volume (v/v) acetone/dimethylsulfoxide (DMSO) to obtain stock solutions. […] The concentrated stock solutions were diluted with an aqueous mixture of 1.5% v/v of Agri-dex crop oil concentrate to provide the appropriate application rates. Compound requirements are based upon a 12 mL application volume at a rate of 187 liters per hectare (L/ha). Stocks solutions of the safeners were prepared following the same procedure. Spray solutions of the safeners and experimental compound mixtures were prepared by adding the appropriate volume of both stock solutions to the appropriate amount of dilution solution to form a 12 mL spray solution with active ingredients in two-way combinations. Formulated compounds were applied to the plant material with an overhead Mandel track sprayer equipped with 8002E nozzles calibrated to deliver 187 L/ha over an application area of 0.503 square meters (m^2) at a spray height of 18 inches (43 centimeters (cm)) above average plant canopy. Control plants were sprayed in the same manner with the solvent blank.
(§3) The treated plants and control plants were placed in a greenhouse as described above and watered by sub-irrigation to prevent wash-off of the test compounds. After 20-22 d, the condition of the test plants as compared with that of the control plants was determined visually and scored on a scale of 0 to 100 percent where 0 corresponds to no injury and 100 corresponds to complete kill.
(§4) Colby's equation was used to determine the herbicidal effects expected from the mixtures (Colby, S. R., Calculation of the synergistic and antagonistic response of herbicide combinations. Weeds 1967, 15, 20-22.).
(§5) The following equation was used to calculate the expected activity of mixtures containing two active ingredients, A and B: Expected=A+B−(A×B/100)
(§6) A=observed efficacy of active ingredient A at the same concentration as used in the mixture.
(§7) B=observed efficacy of active ingredient B at the same concentration as used in the mixture.

[2] = test system: KCHSC = Kochia scoparia (kochia); experiment: as above; assay type: in vivo
Procedure: as §1, §2, §3, §4, §5, §6, §7

[3] = test system: MATCH = Matricaria chamomila (scented mayweed); experiment: as above; assay type: in vivo
Procedure: as §1, §2, §3, §4, §5, §6, §7

[4] = test system: SASKR = Salsola iberica (Russian thistle); experiment: as above; assay type: in vivo
Procedure: as §1, §2, §3, §4, §5, §6, §7

[5] = test system: STEME = Stellaria media (common chickweed); experiment: as above; assay type: in vivo
Procedure: as §1, §2, §3, §4, §5, §6, §7

[6] = test system: VERPE = Veronica persica (bird's-eye speedwell); experiment: as above; assay type: in vivo
Procedure: as §1, §2, §3, §4, §5, §6, §7

[7] = test system: VIOTR = Viola tricolor (wild pansy); experiment: as above; assay type: in vivo
Procedure: as §1, §2, §3, §4, §5, §6, §7

[8] = test system: LAMPU (purple deadnettle); experiment: as above; assay type: in vivo, Lamium purpureum
Procedure: as §1, §2, §3, §4, §5, §6, §7

PAPRH (corn poppy) = experiment: as above; assay type: in vivo, Papaver rhoeas
Procedure: as §1, §2, §3, §4, §5, §6, §7

POLCO (wild buckwheat) = experiment: as above; assay type: in vivo, Polygonum convolvulus
Procedure: as §1, §2, §3, §4, §5, §6, §7

[9] = test system: HORVS = Hordeum vulgare (spring barley); experiment: Postemergence herbicidal safening, greenhouse, visual injury; assay type: in vivo
Procedure: as §1, §2, §3, §4, §5, §6, §7

[10] = test system: TRZAS = Triticum aestivum (spring wheat); experiment: as above; assay type: in vivo
Procedure: as §1, §2, §3, §4, §5, §6, §7

CCCCCC(C)OC(=O)COc1ccc(Cl)c2cccnc12 (centres unmarked) [Cloquintocet-mexyl, cloquintocet-mexyl]
0%: GALAP Ob (observed injury) ([1]; applied alone at 1.1 g/ha) | GALAP Ob (observed injury) ([1]; applied alone at 2.2 g/ha) | GALAP Ob (observed injury) ([1]; applied alone at 4.4 g/ha) | GALAP Ob (observed injury) ([1]; applied alone at 8.75 g/ha) | GALAP Ob (observed injury) ([1]; applied alone at 17.5 g/ha) | GALAP Ob (observed injury) ([1]; applied alone at 35 g/ha) | GALAP Ob (observed injury) ([1]; applied alone at 70 g/ha) | KCHSC Ob (observed injury) ([2]; applied alone at 1.0937 g/ha) | KCHSC Ob (observed injury) ([2]; applied alone at 1.1 g/ha) | KCHSC Ob (observed injury) ([2]; applied alone at 2.1875 g/ha) | KCHSC Ob (observed injury) ([2]; applied alone at 2.2 g/ha) | KCHSC Ob (observed injury) ([2]; applied alone at 4.375 g/ha) | KCHSC Ob (observed injury) ([2]; applied alone at 4.4 g/ha) | KCHSC Ob (observed injury) ([2]; applied alone at 8.75 g/ha) | KCHSC Ob (observed injury) ([2]; applied alone at 17.5 g/ha) | KCHSC Ob (observed injury) ([2]; applied alone at 35 g/ha) | KCHSC Ob (observed injury) ([2]; applied alone at 70 g/ha) | MATCH Ob (observed injury) ([3]; applied alone at 1.0937 g/ha) | MATCH Ob (observed injury) ([3]; applied alone at 1.1 g/ha) | MATCH Ob (observed injury) ([3]; applied alone at 2.1875 g/ha) | MATCH Ob (observed injury) ([3]; applied alone at 2.2 g/ha) | MATCH Ob (observed injury) ([3]; applied alone at 4.375 g/ha) | MATCH Ob (observed injury) ([3]; applied alone at 4.4 g/ha) | MATCH Ob (observed injury) ([3]; applied alone at 8.75 g/ha) | MATCH Ob (observed injury) ([3]; applied alone at 17.5 g/ha) | MATCH Ob (observed injury) ([3]; applied alone at 35 g/ha) | MATCH Ob (observed injury) ([3]; applied alone at 70 g/ha) | SASKR Ob (observed injury) ([4]; applied alone at 1.0937 g/ha) | SASKR Ob (observed injury) ([4]; applied alone at 1.1 g/ha) | SASKR Ob (observed injury) ([4]; applied alone at 2.1875 g/ha) | SASKR Ob (observed injury) ([4]; applied alone at 2.2 g/ha) | SASKR Ob (observed injury) ([4]; applied alone at 4.375 g/ha) | SASKR Ob (observed injury) ([4]; applied alone at 4.4 g/ha) | SASKR Ob (observed injury) ([4]; applied alone at 8.75 g/ha) | SASKR Ob (observed injury) ([4]; applied alone at 17.5 g/ha) | SASKR Ob (observed injury) ([4]; applied alone at 35 g/ha) | SASKR Ob (observed injury) ([4]; applied alone at 70 g/ha) | STEME Ob (observed injury) ([5]; applied alone at 1.1 g/ha) | STEME Ob (observed injury) ([5]; applied alone at 2.2 g/ha) | STEME Ob (observed injury) ([5]; applied alone at 4.4 g/ha) | STEME Ob (observed injury) ([5]; applied alone at 8.75 g/ha) | STEME Ob (observed injury) ([5]; applied alone at 17.5 g/ha) | STEME Ob (observed injury) ([5]; applied alone at 35 g/ha) | STEME Ob (observed injury) ([5]; applied alone at 70 g/ha) | VERPE Ob (observed injury) ([6]; applied alone at 1.0937 g/ha) | VERPE Ob (observed injury) ([6]; applied alone at 1.1 g/ha) | VERPE Ob (observed injury) ([6]; applied alone at 2.1875 g/ha) | VERPE Ob (observed injury) ([6]; applied alone at 2.2 g/ha) | VERPE Ob (observed injury) ([6]; applied alone at 4.375 g/ha) | VERPE Ob (observed injury) ([6]; applied alone at 4.4 g/ha) | VERPE Ob (observed injury) ([6]; applied alone at 8.75 g/ha) | VERPE Ob (observed injury) ([6]; applied alone at 17.5 g/ha) | VERPE Ob (observed injury) ([6]; applied alone at 35 g/ha) | VERPE Ob (observed injury) ([6]; applied alone at 70 g/ha) | VIOTR Ob (observed injury) ([7]; applied alone at 1.0937 g/ha) | VIOTR Ob (observed injury) ([7]; applied alone at 1.1 g/ha) | VIOTR Ob (observed injury) ([7]; applied alone at 2.1875 g/ha) | VIOTR Ob (observed injury) ([7]; applied alone at 2.2 g/ha) | VIOTR Ob (observed injury) ([7]; applied alone at 4.375 g/ha) | VIOTR Ob (observed injury) ([7]; applied alone at 4.4 g/ha) | VIOTR Ob (observed injury) ([7]; applied alone at 8.75 g/ha) | VIOTR Ob (observed injury) ([7]; applied alone at 17.5 g/ha) | VIOTR Ob (observed injury) ([7]; applied alone at 35 g/ha) | VIOTR Ob (observed injury) ([7]; applied alone at 70 g/ha) | LAMPU Ob (observed injury) ([8]; applied alone at 1.1 g/ha) | LAMPU Ob (observed injury) ([8]; applied alone at 2.2 g/ha) | LAMPU Ob (observed injury) ([8]; applied alone at 4.4 g/ha) | LAMPU Ob (observed injury) ([8]; applied alone at 8.75 g/ha) | LAMPU Ob (observed injury) ([8]; applied alone at 17.5 g/ha) | LAMPU Ob (observed injury) ([8]; applied alone at 35 g/ha) | LAMPU Ob (observed injury) ([8]; applied alone at 70 g/ha) | PAPRH Ob (observed injury) (PAPRH (corn poppy); applied alone at 1.1 g/ha) | PAPRH Ob (observed injury) (PAPRH (corn poppy); applied alone at 2.2 g/ha) | PAPRH Ob (observed injury) (PAPRH (corn poppy); applied alone at 4.4 g/ha) | PAPRH Ob (observed injury) (PAPRH (corn poppy); applied alone at 8.75 g/ha) | PAPRH Ob (observed injury) (PAPRH (corn poppy); applied alone at 17.5 g/ha) | PAPRH Ob (observed injury) (PAPRH (corn poppy); applied alone at 35 g/ha) | PAPRH Ob (observed injury) (PAPRH (corn poppy); applied alone at 70 g/ha) | POLCO Ob (observed injury) (POLCO (wild buckwheat); applied alone at 1.1 g/ha) | POLCO Ob (observed injury) (POLCO (wild buckwheat); applied alone at 2.2 g/ha) | POLCO Ob (observed injury) (POLCO (wild buckwheat); applied alone at 4.4 g/ha) | POLCO Ob (observed injury) (POLCO (wild buckwheat); applied alone at 8.75 g/ha) | POLCO Ob (observed injury) (POLCO (wild buckwheat); applied alone at 17.5 g/ha) | POLCO Ob (observed injury) (POLCO (wild buckwheat); applied alone at 35 g/ha) | POLCO Ob (observed injury) (POLCO (wild buckwheat); applied alone at 70 g/ha)

O=C(O)COc1ccc(Cl)c2cccnc12 [Cloquintocet-acid, [(5-chloro-8-quinolinyl)oxy]acetic acid]
0%: HORVS Ob (observed injury) ([9]; applied alone at 0.55 g/ha) | HORVS Ob (observed injury) ([9]; applied alone at 1.1 g/ha) | HORVS Ob (observed injury) ([9]; applied alone at 2.2 g/ha) | HORVS Ob (observed injury) ([9]; applied alone at 4.4 g/ha) | TRZAS Ob (observed injury) ([10]; applied alone at 0.55 g/ha) | TRZAS Ob (observed injury) ([10]; applied alone at 1.1 g/ha) | TRZAS Ob (observed injury) ([10]; applied alone at 2.2 g/ha) | TRZAS Ob (observed injury) ([10]; applied alone at 4.4 g/ha) | LAMPU Ob (observed injury) ([8]; applied alone at 0.55 g/ha) | LAMPU Ob (observed injury) ([8]; applied alone at 1.1 g/ha) | LAMPU Ob (observed injury) ([8]; applied alone at 2.2 g/ha) | LAMPU Ob (observed injury) ([8]; applied alone at 4.4 g/ha) | PAPRH Ob (observed injury) (PAPRH (corn poppy); applied alone at 0.55 g/ha) | PAPRH Ob (observed injury) (PAPRH (corn poppy); applied alone at 1.1 g/ha) | PAPRH Ob (observed injury) (PAPRH (corn poppy); applied alone at 2.2 g/ha) | PAPRH Ob (observed injury) (PAPRH (corn poppy); applied alone at 4.4 g/ha)
